In patent publication US11198869B2, “Angelman syndrome antisense treatment” (The Texas A&M University System, priority 2017, dated 2021):
Read-outs that look alike come from different tables or passages of the source.

What was measured:
UBE3A-AS [1] = assay: UBE3A-AS steady state RNA (TaqMan qRT-PCR) in GABAergic iPSC-derived neurons; format: cell-based, human; details: for IC50 Ratio relative to ASO-4.4.PS.L: equivalence; for IC50 Ratio relative to ASO-4.4.PS.L / Limit Exceeded (equivalence of IC50 relative to ASO-4.4.PS.L): two one-sided tests; for Relative Potency: relative to ASO-4.4.PS.L = 1
UBE3A-AS [2] = assay: as above; format: cell-based, human; details: for IC50 / Relative Potency: optimized ASOs; for IC50: 3-parameter logistic; for Relative Potency: relative to ASO 4.S = 1
Protocol: Human-specific ASOs were then designed to target this region, which included four ASOs targeting non-polymorphic regions in human and regions conserved (100%) with macaque (Rhesus and Cynomolgus) (Table 7 and FIG. 3A). Human induced pluripotent stem cell (iPSC) neural precursor cells were differentiated into GABAergic neurons for 14 DIV and then treated with a control ASO [ASO-C (10 μM, n=3)], Topotecan [Topo (1 μM, n=2)], and six ASOs targeting UBE3A-AS [ASO-1, ASO-2, ASO-3, ASO-4, ASO-5, and ASO-6 (10 μM, n=3)]. Additionally, an ASO targeting an intronic region downstream of SNORD109B was included (ASO-7). Six days post-treatment (20 DIV), RNA was isolated from the neurons and the steady state RNA levels of UBE3A-AS and UBE3A were estimated relative to the control treatment (FIG. 3B).
The potency of ASO-4 was further examined given its effect on UBE3A-AS RNA levels. GABAergic iPSC-derived neurons were treated at 14 DIV with a 10-point ½ log dose response curve of ASO-4 and Topotecan, as a positive control and for comparisons between treatment [1 nM, 3 nM, 10 nM, 30 nM, 100 nM, 300 nM, 1 μM, 3 μM, 10 μM, and 30 μM (ASO-4, n=6; Topotecan, n=2)]. At 20 DIV, the steady state RNA levels of UBE3A-AS were measured and dose response curves fitted to estimate the IC50 and Emax (i.e., maximum UBE3A-AS inhibition) (Table 9 and FIG. 4A). […]
Additional ASOs targeting the 5′-end of UBE3A-AS were then designed to optimize the target sequences of ASO-4 (ASO-4.1, ASO-4.2, ASO-4.3, and ASO-4.4) as well as two other target regions, ASO-3 (ASO-3.1 and ASO-3.2) and ASO-6 (ASO-6.1) (Table 11). Additionally, ASO-4 was manufactured at two different vendors for comparative purposes (ASO-4.S, Sigma; ASO-4.I, Integrated DNA Technologies). Human iPSC-derived neurons (GABAergic) were treated at 14 DIV with a […] ½ log dose curve of ASO-3.1, ASO-3.2, ASO-4.S, ASO-4.I, ASO-4.1, ASO-4.2, ASO-4.3, ASO-4.4, and ASO-6.1 [30 nM, 100 nM, 300 nM, 1 μM (n=6)]. At 20 DIV, the IC50 and Emax of each ASO was estimated as described above (FIG. 5A-B and Table 12). […] No significant difference was observed between ASO-4.S and ASO-4.I.
The potency of ASO-4 and ASO-6.1 was further examined in iPSC-derived neurons at a later time point in differentiation. GABAergic iPSC-derived neurons were treated at 29 DIV with a 10-point ½ log dose response curve of ASO-4 and ASO-6.1 [1 nM, 3 nM, 10 nM, 30 nM, 100 nM, 300 nM, 1 μM, 3 μM, 10 μM, and 30 μM (n=3)]. At 35 DIV, the IC50 and Emax of each ASO was estimated as described above (FIG. 5C-D and Table 14). The dose response curves of ASO-4 and ASO-6.1 were not similar (Parallelism test: F(3,172)=22.7, p<0.0001).
GABAergic and glutamatergic induced pluripotent stem cell (iPSC) derived neural precursor cells (NRC-100-010-001 and GNC-301-030-001, Cellular Dynamics International, Madison Wis.) were differentiated into neurons according to the manufactures protocol. Briefly, neural precursor cells were thawed and resuspended in chemically defined medium and added to sterile-culture plates coated with poly-D-lysine and laminin. The medium was replaced 24 hr after plating and then one-half of the medium was replaced every 3-5 days afterwards.
For cultured iPSC-derived neurons, RNA isolation and cDNA synthesis were performed using the Cell-to-CT kit (Thermo Fisher Scientific) in a lysate volume of 55 μl.
The steady state RNA levels of target transcripts were measured using TaqMan quantitative reverse-transcription PCR (qRT-PCR) assays. Total reaction volume was 10 uL, including 2 μl of cDNA, 1× Gene Expression Master mix (4369016, Thermo Fisher Scientific, Waltham, Mass.), and 1× TaqMan primer assay (Thermo Fisher Scientific). Cycling conditions were 2 minutes at 50° C., 10 minutes at 95° C., and 40 cycles of 15 seconds at 95° C. and 1 minute at 60° C., with readings taken at the 60° C. step of every cycle. […]

[3] = Cluster 1 ASOs, 18 DIV to 24 DIV, parallel model, 4 Parameter logistic (Hill)
[4] = candidate ASOs, 18 DIV to 24 DIV
[5] = candidate ASOs, 18 DIV to 24 DIV, 4-parameter logistic (Hill)
[6] = candidate ASOs, treated 18 DIV, RNA 24 DIV, 10-point dose curve, n=2, full model, 4-parameter logistic (Hill)
[7] = 14 DIV to 20 DIV, parallel model, read-out: IC50 (M), UBE3A-AS
[8] = treated 14 DIV, RNA 20 DIV, 5-point dose curve 30 nM-3 μM, full model, read-out: IC50 Estimate, UBE3A-AS

Substance | IC50 (UBE3A-AS [1]; [3]) | IC50 Ratio relative to ASO-4.4.PS.L (UBE3A-AS [1]; Cluster 1 ASOs) | Limit Exceeded (equivalence of IC50 relative to ASO-4.4.PS.L) (UBE3A-AS [1]; Cluster 1 ASOs) | IC50 (UBE3A-AS [1]; [6]) | IC50 (UBE3A-AS [2]; [7]) | IC50 (UBE3A-AS [2]; [8]) | Relative Potency (UBE3A-AS [1]; Cluster 1 ASOs, parallel model) | 30 μM (Mean), normalized UBE3A-AS RNA level relative to vehicle (UBE3A-AS [1]; [4]) | Emax (normalized UBE3A-AS RNA level relative to vehicle) (UBE3A-AS [1]; [5]) | 3 μM (Mean), Emax, normalized UBE3A-AS RNA level relative to vehicle (UBE3A-AS [2]; treated 14 DIV, RNA 20 DIV) | Relative Potency (UBE3A-AS [2]; parallel model)
A^O*U^O*A^O*G^O*A^O*a*t*g*g*c*a*c*a*t*c*U^O*C^O*U^O*U^O*G^O [ASO-4.1] | – | – | – | – | – | 2.27e-06 M | – | – | – | 0.42 | –
C^O*U^O-G^O*G^O-t*g-t*c-a*a-c*a-a*g-C^O*C^O-A^O*A^o [ASO-6.1.PO-2.O] | – | – | – | – | – | – | – | 0.3 | – | – | –
G^O*U^O*U^O*G^O*a*g*t*g*g*t*g*t*c*a*G^O*U^O*U^O*U^O*C^O [ASO-3.1] | – | – | – | – | 2.81e-06 M | 2.98e-06 M | – | – | – | 0.51 | 0.53
T^M*A^M*G^M*A^M*A^M*t*g*g*c*a*c*a*t*c*t*5mC^M*T^M*T^M*G^M*G^M [ASO-4.0.PS.M] | 262 nM | 0.86 | Lower | 300 nM | – | – | 0.2 | 0.05 | 0.05 | – | –
T^M*A^M*G^M*A^M*A^M-t*g*g*c*a*c*a*t*c*t-5mC^M*T^M*T^M*G^M*G^M [ASO-4.0.PO-1.M] | 278 nM | 0.87 | Lower | 278 nM | – | – | 0.2 | 0.05 | 0.02 | – | –
T^M*A^M-G^M*A^M-A^M*t-g*g-c*a-c*a-t*c-t*5mC^M*T^M*T^M-G^M*G^M [ASO-4.0.PO-2.M] | – | – | – | – | – | – | – | 0.5 | – | – | –
U^O*A^O*G^O*A^O*A^O*t*g*g*c*a*c*a*t*c*t*C^O*U^O*U^O*G^O*G^o [ASO-4.0.PS.O] | – | – | – | 1270 nM | – | – | – | 0.1 | 0.06 | – | –
U^O*A^O*G^O*A^O*A^O-t*g*g*c*a*c*a*t*c*t-C^O*U^O*U^O*G^O*G^o [ASO-4.0.PO-1.O] | – | – | – | 766 nM | – | – | – | 0.1 | 0.05 | – | –
U^O*U^O*G^O*A^O*g*t*g*g*t*g*t*c*a*g*U^O*U^O*U^O*C^O [ASO-3.2] | – | – | – | – | 1.85e-06 M | 1.88e-06 M | – | – | – | 0.44 | 0.81

More lines, main results first:

IC50 (UBE3A-AS [1]; [3]) | IC50 Ratio relative to ASO-4.4.PS.L (UBE3A-AS [1]; Cluster 1 ASOs) | Limit Exceeded (equivalence of IC50 relative to ASO-4.4.PS.L) (UBE3A-AS [1]; Cluster 1 ASOs) | IC50 (UBE3A-AS [1]; [6]) | IC50 (UBE3A-AS [2]; [7]) | IC50 (UBE3A-AS [2]; [8]) | Substance | Relative Potency (UBE3A-AS [1]; Cluster 1 ASOs, parallel model) | 30 μM (Mean), normalized UBE3A-AS RNA level relative to vehicle (UBE3A-AS [1]; [4]) | Emax (normalized UBE3A-AS RNA level relative to vehicle) (UBE3A-AS [1]; [5]) | 3 μM (Mean), Emax, normalized UBE3A-AS RNA level relative to vehicle (UBE3A-AS [2]; treated 14 DIV, RNA 20 DIV) | Relative Potency (UBE3A-AS [2]; parallel model)
153 nM | 0.90 | equivalent IC50 values | 147 nM | – | – | 5mC^M*T^M*G^M*G^M*t*g*t*c*a*a*c*a*a*g*5mC^M*5mC^M*A^M*A^M [ASO-6.1.PS.M] | 0.3 | 0.02 | −0.05 | – | –
177 nM | 0.90 | equivalent IC50 values | 166 nM | – | – | 5mC^M*T^M*G^M*G^M-t*g*t*c*a*a*c*a*a*g-5mC^M*5mC^M*A^M*A^M [ASO-6.1.PO-1.M] | 0.3 | 0.04 | −0.02 | – | –
– | – | – | 269000 nM | – | – | 5mC^M*T^M-G^M*G^M-t*g-t*c-a*a-c*a-a*g-5mC^M*5mC^M-A^M*A^M [ASO-6.1.PO-2.M] | – | 0.3 | −1.2 | – | –
– | – | – | – | 2.04e-06 M | 2.11e-06 M | A^O*G^O*A^O*A^O*t*g*g*c*a*c*a*t*c*t*C^O*U^O*U^O*G^O [ASO-4.4] | – | – | – | 0.44 | 0.73
– | – | – | – | 1.24e-06 M | 1.08e-06 M | A^O*G^O*A^O*A^O*t*g*g*c*a*c*a*t*c*t*C^O*U^O*U^O*G^O*G^O [ASO-4.2] | – | – | – | 0.31 | 1.21
432 nM | 0.83 | Lower | 532 nM | – | – | C^O*U^O*G^O*G^O*t*g*t*c*a*a*c*a*a*g*C^O*C^O*A^O*A^o [ASO-6.1.PS.O] | 0.1 | 0.05 | −0.2 | – | –
281 nM | 0.85 | Lower | 362 nM | – | – | T^L*G^L*G^L*t*g*t*c*a*a*c*a*a*g*5mC^L*5mC^L*A^L*A^L [ASO-6.1.PS.L] | 0.2 | 0.04 | −0.07 | – | –
– | – | – | 1890 nM | – | – | T^L*G^L*G^L-t*g*t*c*a*a*c*a*a*g-5mC^L*5mC^L*A^L*A^L [ASO-6.1.PO-1.L] | – | 0.2 | 0.03 | – | –
– | – | – | 734 nM | – | – | T^L*G^L-G^L*t-g*t-c*a-a*c-a*a-g*5mC^L-5mC^L-A^L*A^L [ASO-6.1.PO-2.L] | – | 0.4 | 0.3 | – | –
– | – | – | – | 1.96e-06 M | 2.03e-06 M | U^O*A^O*G^O*A^O*a*t*g*g*c*a*c*a*t*c*U^O*C^O*U^O*U^O*G^O [ASO-4.3] | – | – | – | 0.40 | 0.76
